Laboratory results published in patent US20080044493A1, “Agent For Ameliorating The Maximum Passage Time Through Digestive Tract, Agent For Ameliorating Passage Time Through Digestive Tract And Preventive For Colon Cancer” (priority 2004, published 2008).

Columns and labels:
[1] = test system: healthy subject (1 person) not suffering from constipation; test: Test Example 1: transit time through the digestive tract by radio-opaque markers, with fecal weight and defecation frequency; format: in vivo, human; conditions: for Maximum Transit Time through Digestive Tract (average) / Transit Time through Digestive Tract (average): Standard Deviation in parentheses
Text: The method proposed by Hinton et al. was invented to measure the time required from food ingestion to defecation, namely, transit time through the digestive tract. More specifically, a plurality of radio-opaque markers were taken with a meal, and the time required from food ingestion to defecation (ti) and the number of markers contained in the evacuated feces (xi) were inspected based on x-ray images of the collected feces, followed by calculation of transit time through the digestive tract using the following formula. Transit time through the digestive tract indicates an average time required for a plurality of radio-opaque markers taken simultaneously to be evacuated. [formula]
A test sample in a dose shown in Table 1, together with 15 markers, were administered per day with meals to a healthy subject (1 person) not suffering from constipation, and the markers in the feces of the subject were identified thereafter. Test samples were administered for 3 days, and during which the transit times through the digestive tract of 5 or 6 meals were measured. Transit time through the digestive tract calculated by the above formula after each meal and the time required for the last marker to be evacuated (maximum transit time through the digestive tract) were recorded. […] Statistical treatment was performed using t-tests. In addition to the marker identification, the fecal weight and defecation frequency were recorded, and daily average fecal weight and defecation frequency were calculated, and shown in Table 1.

[2] = test system: feces; conditions: 3 g a day; statistically significant; cited from earlier work
[3] = test system: 5 subjects; conditions: liquid preparation 2.4 g per 100 ml, 70 ml (974 mg in terms of magnesium) a day; cited from earlier work

With `[O]=[Mg]` [Magnesium Oxide] the “Transit time and maximum transit time through the digestive tract (in words)” value ([1]; 0.17 to 1.5 g a day, in comparison with no administration (control)) was “shortened transit time and maximum transit time through the digestive tract were observed”, the “Average fecal weight (in words)” value ([1]; 1.0 to 1.5 g intake a day) was “more than doubled” and the Loose stools ([1]; 1.0 to 1.5 g intake a day) was “caused loose stools having high a moisture content”. For the same compound, the “Average Defecation Frequency” value ([1]; Dose/Day 0.17 g) was 2.3 times/day, the “Average Fecal Weight” value ([1]; Dose/Day 0.17 g) was 274 g/day and the “Maximum Transit Time through Digestive Tract (average)” value ([1]; Dose/Day 0.17 g) was 38.1 (10.1) hour. For the same compound, the “Transit Time through Digestive Tract (average)” value ([1]; Dose/Day 0.17 g) was 20.6 (4.1) hour, the “Average Defecation Frequency” value ([1]; Dose/Day 0.35 g) was 2.0 times/day and the “Average Fecal Weight” value ([1]; Dose/Day 0.35 g) was 204 g/day. The “Maximum Transit Time through Digestive Tract (average)” value ([1]; Dose/Day 0.35 g) was 32.4 (7.6) hour, the “Transit Time through Digestive Tract (average)” value ([1]; Dose/Day 0.35 g) was 17.5 (3.1) hour and the “Average Defecation Frequency” value ([1]; Dose/Day 0.50 g) was 2.3 times/day. For the same compound, the “Average Fecal Weight” value ([1]; Dose/Day 0.50 g) was 313 g/day, the “Maximum Transit Time through Digestive Tract (average)” value ([1]; Dose/Day 0.50 g) was 35.6 (6.9) hour and the “Transit Time through Digestive Tract (average)” value ([1]; Dose/Day 0.50 g) was 21.6 (6.8) hour. For the same compound, the “Average Defecation Frequency” value ([1]; Dose/Day 0.75 g) was 2.3 times/day, the “Average Fecal Weight” value ([1]; Dose/Day 0.75 g) was 235 g/day and the “Maximum Transit Time through Digestive Tract (average)” value ([1]; Dose/Day 0.75 g) was 34.9 (7.2) hour. For the same compound, the “Transit Time through Digestive Tract (average)” value ([1]; Dose/Day 0.75 g) was 21.0 (4.3) hour, the “Average Defecation Frequency” value ([1]; Dose/Day 1.0 g) was 2.0 times/day and the “Average Fecal Weight” value ([1]; Dose/Day 1.0 g) was 414 g/day. For the same compound, the “Maximum Transit Time through Digestive Tract (average)” value ([1]; Dose/Day 1.0 g) was 37.1 (8.2) hour, the “Transit Time through Digestive Tract (average)” value ([1]; Dose/Day 1.0 g) was 22.9 (2.8) hour and the “Average Defecation Frequency” value ([1]; Dose/Day 1.5 g) was 2.3 times/day. The “Average Fecal Weight” value ([1]; Dose/Day 1.5 g) was 426 g/day, the “Maximum Transit Time through Digestive Tract (average)” value ([1]; Dose/Day 1.5 g) was 35.6 (6.4) hour and the “Transit Time through Digestive Tract (average)” value ([1]; Dose/Day 1.5 g) was 19.5 (1.9) hour. The Loose stools ([1]; up to 0.75 g intake a day) was “loose stools were not caused”.
For `O=S(=O)([O-])[O-].[Mg+2]` [Magnesium Sulfate], the “Average Defecation Frequency” value ([1]; Dose/Day 4.5 g) was 2.3 times/day, the “Average Fecal Weight” value ([1]; Dose/Day 4.5 g) was 389 g/day and the “Maximum Transit Time through Digestive Tract (average)” value ([1]; Dose/Day 4.5 g) was 35.8 (10.1) hour. For the same compound, the “Transit Time through Digestive Tract (average)” value ([1]; Dose/Day 4.5 g) was 20.2 (2.4) hour and the Cathartic effects ([1]; compared with magnesium oxide) was “stronger cathartic effects than magnesium oxide”.
In the case of `OC[C@H]1O[C@@H](O[C@H]2[C@H](O)[C@@H](O)[C@@H](O[C@]3(CO)O[C@H](CO)[C@@H](O)[C@@H]3O)O[C@@H]2CO)[C@H](O)[C@@H](O)[C@H]1O` [Lactosucrose], the “Average Defecation Frequency” value ([1]; Dose/Day 1.5 g) is reported as 2.0 times/day, the “Average Fecal Weight” value ([1]; Dose/Day 1.5 g) is reported as 267 g/day and the “Maximum Transit Time through Digestive Tract (average)” value ([1]; Dose/Day 1.5 g) is reported as 31.3 (8.6) hour. The “Transit Time through Digestive Tract (average)” value ([1]; Dose/Day 1.5 g) was 19.7 (3.5) hour.
For `OC[C@H]1O[C@@H](O[C@@H]2[C@@H](CO)OC(O)(CO)[C@H]2O)[C@H](O)[C@@H](O)[C@H]1O` (mixture of isomers) [Lactulose], the “Average Defecation Frequency” value ([1]; Dose/Day 1 g) was 1.8 times/day, the “Average Fecal Weight” value ([1]; Dose/Day 1 g) was 315 g/day and the “Maximum Transit Time through Digestive Tract (average)” value ([1]; Dose/Day 1 g) was 34.4 (9.4) hour. For the same compound, the “Transit Time through Digestive Tract (average)” value ([1]; Dose/Day 1 g) was 21.8 (3.1) hour, the “Azoreductase activity in feces” value [2] was “lowered azoreductase activity” and the “Nitroreductase activity in feces” value [2] was “lowered nitroreductase activity”. For the same compound, the “Number of the Bifidobacterium in feces” value [2] was “increased number of the Bifidobacterium”, the “Putrefactive metabolites in feces” value [2] was “reduced putrefactive metabolites” and the “β-glucuronidase activity in feces” value [2] was “lowered β-glucuronidase activity”.
In the case of `[O]=[Mg]` [activated magnesium oxide], the Cathartic drug effect [3] is given as “its cathartic drug effect was shown”.
For `OC[C@H]1O[C@H](OC[C@H]2O[C@H](O[C@]3(CO)O[C@H](CO)[C@@H](O)[C@@H]3O)[C@H](O)[C@@H](O)[C@@H]2O)[C@H](O)[C@@H](O)[C@H]1O` [Raffinose], the “Average Defecation Frequency” value ([1]; Dose/Day 2 g) was 2.3 times/day, the “Average Fecal Weight” value ([1]; Dose/Day 2 g) was 243 g/day and the “Maximum Transit Time through Digestive Tract (average)” value ([1]; Dose/Day 2 g) was 31.0 (11.5) hour. The “Transit Time through Digestive Tract (average)” value ([1]; Dose/Day 2 g) was 22.2 (2.5) hour.
